What was measured:
[1] = tested on: bFGF-induced angiogenesis in the CAM model; assay: bFGF-induced angiogenesis in the CAM model (TPH); assay type: in vivo, chick
Protocol: (§1) Neovascularization was examined by previously described methods (see references at the end of Example 5). Ten-day-old fertilized chicken eggs were incubated at 37° C. with 55% relative humidity. In the dark with the help of candling lamp and using a hypodermic needle a small hole was punctured in the shell covering the air sac. A second hole was punctured on the wider side of the egg above an avascular area of the embryonic membrane. An artificial air sac was created below the second hole by applying gentle vacuum to the first hole using a small rubber squeeze bulb. The vacuum caused the separation of chorioallantoic membrane (CAM) from the shell. An approximately 1.0 cm^2 widow was cut in the shell over the dropped CAM with the use of a mini drill. The underlying CAM was accessed through this small window.
(§2) Filter disks were punched using a small puncher from filter paper #1 (Whatman International, United Kingdom). Filter disks were soaked in 3 mg/ml cortisone acetate solution (95% ethanol and water) and air-dried under sterile condition. For inducing angiogenesis, sterile filter disks were saturated with bFGF (1 μg/ml) or other pro-angiogenesis factors and control disks were saturated with PBS without Calcium and Magnesium.
(§3) Using sterile forceps one filter/CAM was placed from the window. The window was sealed with Highland brand transparent tape. After 24 hr, 10-25 µl of test agent (inhibitor) was injected intravenously or added topically into the CAM membrane of bFGF or other pro-angiogenesis factors stimulated CAMs. • Control filter disks received PBS without Calcium and Magnesium. • After 48 hr, CAM tissue directly beneath filter disk was harvested and placed in a 35-mm Petri dish. Eight-Ten eggs/treatment group was used.
(§4) A pro-angiogenic agent (see Examples, below) was added to induce new blood vessel branches on the CAM of 10-day old embryos. Sterile disks of #1 filter paper (Whatman International, United Kingdom) were pre-treated with 3 mg/ml cortisone acetate, and air dried under sterile conditions. The disks were then suspended in PBS (Phosphate Buffered Saline) and placed on growing CAMs. Filters treated with TPH (TEMPOL-H) or TEMPOL and/or H2O2 or TPH and/or bFGF or VEGF were placed on the first day of the 3-day incubation.
(§5) Digital Images and Microscopic analysis of CAM sections: CAM sections from Petri dish were examined using SV6 stereomicroscope (Karl Zeiss) at 50× magnification. Digital images were captured using a 3-CCD color video camera system (Toshiba America, New York, N.Y.). These images were analyzed using Image-Pro Plus software (Media Cybernetics). The number of branch points in blood vessels within the circular region superimposed to the area of a filter disk was counted for each section. After incubation at 37° C. with 55% relative humidity for 3 days, the CAM tissue directly beneath each filter disk was resected from control and treated CAM samples. Tissues were washed three times with PBS. Sections were placed in a 35-mm Petri dish (Nalge Nunc; Rochester, N.Y.) and were examined under a SV6 stereomicroscope (Karl Zeiss; Thornwood, N.Y.) at 50× magnification. Digital images of CAM sections adjacent to filters were collected using a 3-CCD color video camera system (Toshiba America; New York, N.Y.) and analyzed with the Image-Pro Plus software (Media Cybernetics; Silver Spring, Md.). The number of vessel branch points contained in a circular region equal to the area of a filter disk was counted for each section. Percent inhibition data are expressed as the quotient of the experimental value minus the negative control value divided by the difference between the positive control value and the negative control value. One image was counted in each CAM preparation, and findings from eight CAM preparations were analyzed for each treatment condition. In addition, each experiment was performed three times. […]

[2] = tested on: VEGF-induced angiogenesis in the CAM model; assay: VEGF-induced angiogenesis in the CAM model (TPH); assay type: in vivo, chick
Protocol: as §1, §2, §3, §4, §5

[3] = In vitro stability of Compound 1 in rat plasma; assay type: in vitro ADME; conditions: formed from OT-551 (Compound 1, 1000 ng/mL)
Protocol: (§6) The active metabolite of Compound 1 (Cyclopropanecarboxylic acid 1-hydroxy-2,2,6,6-tetramethyl-piperidin-4-yl ester) is TPH. The objective of this analysis was to determine the in vitro half-life of Compound 1 in rat, rabbit, dog, and human plasma under standardized incubation conditions.
(§7) Compound 1 was incubated with pooled rat, rabbit, dog, and human plasma for various times under standardized incubation conditions. Pre-labeled tubes containing pooled plasma from rats, rabbits, dogs, and humans were pre-incubated in a shaking 37° C. water bath. A Compound 1 solution was added to the tubes at a final concentration of 1000 ng/mL. Time zero samples (n=5) were immediately removed and transferred into tubes containing a stabilizer solution (DTPA, acetylcysteine and ascorbic acid), the LC/MS/MS assay internal standard and methanol. […] The tubes were vortexed, placed on ice, followed by centrifugation. One hundred-μL aliquots of the supernatant were transferred into HPLC sample vials. Additional tubes (n=5 at each time point) were incubated for 5, 10, 20, 30, 60, 120, and 240 minutes at 37° C. and thereafter processed. The amount of Compound 1 and TPH in each incubated sample was quantified using validated LC/MS/MS assays.

[4] = In vitro stability of Compound 1 in rabbit plasma; assay type: in vitro ADME; conditions: formed from OT-551 (Compound 1, 1000 ng/mL)
Protocol: as §6, §7

[5] = In vitro stability of Compound 1 in human plasma; assay type: in vitro ADME; conditions: formed from OT-551 (Compound 1, 1000 ng/mL)
Protocol: as §6, §7

[6] = tested on: mouse V79 cells; conditions: Mitchell et al., 2000; cited from earlier work
[7] = tested on: selenite induced cataract; conditions: mice; cited from earlier work

CC1(C)CC(O)CC(C)(C)N1O [TPH]
inhibition of bFGF-induced angiogenesis ([1]; 100-400 μg): dose-dependent inhibition
Mean % Inhibition ± SD ([1]; bFGF (1 μg/ml) + TPH 100 μg): 20 ± 12%
Mean Branch points ± SEM ([1]; bFGF (1 μg/ml) + TPH 100 μg): 172 ± 12.4
Mean % Inhibition ± SD ([1]; bFGF (1 μg/ml) + TPH 200 μg): 45.3 ± 7.5 %
Mean Branch points ± SEM ([1]; bFGF (1 μg/ml) + TPH 200 μg): 147.2 ± 7.5
Mean % Inhibition ± SD ([1]; bFGF (1 μg/ml) + TPH 400 μg): 58.7 ± 10.9 %
Mean Branch points ± SEM ([1]; bFGF (1 μg/ml) + TPH 400 μg): 133.8 ± 10.8
Mean % Inhibition ± SD ([1]; bFGF (1 μg/ml) + TPH 800 μg): 28.1 ± 6.8 %
Mean Branch points ± SEM ([1]; bFGF (1 μg/ml) + TPH 800 μg): 164.2 ± 6.7
inhibition of VEGF-induced angiogenesis ([2]; 100-800 μg (Table 3)): dose-dependent inhibition
anti-angiogenesis efficacy against VEGF-induced angiogenesis as compared with bFGF ([2]; Tables 2 and 3): much greater
Mean % Inhibition ± SD ([2]; VEGF (2 μg/ml) + TPH 100 μg): 37.6 ± 6.9 %
Mean Branch points ± SD ([2]; VEGF (2 μg/ml) + TPH 100 μg): 154.8 ± 7.5
Mean % Inhibition ± SD ([2]; VEGF (2 μg/ml) + TPH 200 μg): 42 ± 3.5 %
Mean Branch points ± SD ([2]; VEGF (2 μg/ml) + TPH 200 μg): 150 ± 3.8
Mean % Inhibition ± SD ([2]; VEGF (2 μg/ml) + TPH 400 μg): 53.3 ± 3.3 %
Mean Branch points ± SD ([2]; VEGF (2 μg/ml) + TPH 400 μg): 137.8 ± 3.0
Mean % Inhibition ± SD ([2]; VEGF (2 μg/ml) + TPH 800 μg): 70.7 ± 9.1 %
Mean Branch points ± SD ([2]; VEGF (2 μg/ml) + TPH 800 μg): 118.8 ± 9.9
Concentration of TPH in plasma ([3]; incubation 0 min): 10.23 ± 1.59 ng/mL
Concentration of TPH in plasma ([3]; incubation 5 min): 30.47 ± 1.65 ng/mL
Concentration of TPH in plasma ([3]; incubation 10 min): 50.91 ± 2.11 ng/mL
Concentration of TPH in plasma ([3]; incubation 20 min): 86.30 ± 3.30 ng/mL
Concentration of TPH in plasma ([3]; incubation 30 min): 119.63 ± 7.08 ng/mL
Concentration of TPH in plasma ([3]; incubation 60 min): 201.94 ± 4.19 ng/mL
Concentration of TPH in plasma ([3]; incubation 120 min): 304.66 ± 7.27 ng/mL
Concentration of TPH in plasma ([3]; incubation 240 min): 362.66 ± 7.50 ng/mL
Concentration of TPH in plasma ([4]; incubation 0 min): 270.55 ± 35.45 ng/mL
Concentration of TPH in plasma ([4]; incubation 5 min): 587.17 ± 21.99 ng/mL
Concentration of TPH in plasma ([4]; incubation 10 min): 604.21 ± 21.99 ng/mL
Concentration of TPH in plasma ([4]; incubation 20 min): 590.06 ± 40.97 ng/mL
Concentration of TPH in plasma ([4]; incubation 30 min): 533.01 ± 117.40 ng/mL
Concentration of TPH in plasma ([4]; incubation 60 min): 569.19 ± 32.96 ng/mL
Concentration of TPH in plasma ([4]; incubation 120 min): 525.63 ± 10.31 ng/mL
Concentration of TPH in plasma ([4]; incubation 240 min): 477.54 ± 40.95 ng/mL
Concentration of TPH in plasma ([5]; incubation 0 min): 48.76 ± 2.84 ng/mL
Concentration of TPH in plasma ([5]; incubation 5 min): 186.71 ± 4.58 ng/mL
Concentration of TPH in plasma ([5]; incubation 10 min): 241.99 ± 8.05 ng/mL
Concentration of TPH in plasma ([5]; incubation 20 min): 310.10 ± 8.54 ng/mL
Concentration of TPH in plasma ([5]; incubation 30 min): 365.53 ± 14.44 ng/mL
Concentration of TPH in plasma ([5]; incubation 60 min): 449.85 ± 9.73 ng/mL
Concentration of TPH in plasma ([5]; incubation 120 min): 519.12 ± 19.52 ng/mL
Concentration of TPH in plasma ([5]; incubation 240 min): 501.39 ± 11.33 ng/mL
radioprotection of mouse V79 cells [6]: did not provide any radioprotection
prevention of selenite induced cataract [7]: effective

From patent publication US20070197599A1, “HYDROXYLAMINES AND DERIVATIVES AS ANTI-ANGIOGENIC AGENTS” (priority 2006, published 2007)
